Experimental data as given in patent US20260265256A1 (IMPACT THERAPEUTICS (SHANGHAI), INC., priority 2023, published 2026).

Legend:
MDA-MB-436 cells = assay: Growth inhibition assay against BRCA mutant human breast cancer MDA-MB-436 cell line (CCK-8, 7 days); assay type: cell-based; conditions: 168 h, MDA-MB-436, 7 days, read-out: IC50 (nM), proliferation of human breast cancer cells MDA-MB-436
Summary of the method: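 Seeded 3000 cells/well overnight, then exposed to test compound (0.10% DMSO control) for 7 days at 37 °C, 5% CO2, with compound-containing medium changed on day 4. CCK-8 added for 4 h; OD = A450 − A650. Survival % relative to DMSO after background subtraction, plotted against concentration for IC50.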

[1] = target: recombinant poly(ADP-ribose) polymerase 2 (PARP2) (Homo sapiens, UniProt Q9UGN5); assay: PARP2 chemiluminescent assay; assay type: biochemical; conditions: PARP2 enzyme activity, chemiluminescence, 40 ng enzyme/well
recombinant poly(ADP-ribose) polymerase 2 (PARP2), sequence (Q9UGN5 whole entry): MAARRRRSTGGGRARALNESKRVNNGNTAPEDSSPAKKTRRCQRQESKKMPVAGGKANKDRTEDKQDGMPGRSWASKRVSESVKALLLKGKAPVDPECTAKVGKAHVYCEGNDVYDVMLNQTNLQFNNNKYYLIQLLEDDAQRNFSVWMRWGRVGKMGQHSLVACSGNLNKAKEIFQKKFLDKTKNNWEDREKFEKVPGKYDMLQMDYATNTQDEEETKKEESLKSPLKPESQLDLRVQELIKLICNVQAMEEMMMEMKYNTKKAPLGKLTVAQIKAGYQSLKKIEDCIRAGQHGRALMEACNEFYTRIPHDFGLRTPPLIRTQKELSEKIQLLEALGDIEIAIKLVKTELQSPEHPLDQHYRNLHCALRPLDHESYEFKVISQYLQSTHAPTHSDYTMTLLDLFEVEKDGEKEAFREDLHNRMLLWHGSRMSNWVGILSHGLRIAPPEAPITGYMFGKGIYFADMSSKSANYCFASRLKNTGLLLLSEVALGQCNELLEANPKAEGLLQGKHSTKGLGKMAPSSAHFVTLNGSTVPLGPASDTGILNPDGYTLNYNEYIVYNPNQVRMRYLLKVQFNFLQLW

[2] = target: recombinant poly(ADP-ribose) polymerase 1 (PARP1) (Homo sapiens, UniProt P09874); assay: PARP1 chemiluminescent assay; assay type: biochemical; conditions: PARP1 enzyme activity, chemiluminescence, 40 ng enzyme/well
recombinant poly(ADP-ribose) polymerase 1 (PARP1), sequence (P09874 whole entry): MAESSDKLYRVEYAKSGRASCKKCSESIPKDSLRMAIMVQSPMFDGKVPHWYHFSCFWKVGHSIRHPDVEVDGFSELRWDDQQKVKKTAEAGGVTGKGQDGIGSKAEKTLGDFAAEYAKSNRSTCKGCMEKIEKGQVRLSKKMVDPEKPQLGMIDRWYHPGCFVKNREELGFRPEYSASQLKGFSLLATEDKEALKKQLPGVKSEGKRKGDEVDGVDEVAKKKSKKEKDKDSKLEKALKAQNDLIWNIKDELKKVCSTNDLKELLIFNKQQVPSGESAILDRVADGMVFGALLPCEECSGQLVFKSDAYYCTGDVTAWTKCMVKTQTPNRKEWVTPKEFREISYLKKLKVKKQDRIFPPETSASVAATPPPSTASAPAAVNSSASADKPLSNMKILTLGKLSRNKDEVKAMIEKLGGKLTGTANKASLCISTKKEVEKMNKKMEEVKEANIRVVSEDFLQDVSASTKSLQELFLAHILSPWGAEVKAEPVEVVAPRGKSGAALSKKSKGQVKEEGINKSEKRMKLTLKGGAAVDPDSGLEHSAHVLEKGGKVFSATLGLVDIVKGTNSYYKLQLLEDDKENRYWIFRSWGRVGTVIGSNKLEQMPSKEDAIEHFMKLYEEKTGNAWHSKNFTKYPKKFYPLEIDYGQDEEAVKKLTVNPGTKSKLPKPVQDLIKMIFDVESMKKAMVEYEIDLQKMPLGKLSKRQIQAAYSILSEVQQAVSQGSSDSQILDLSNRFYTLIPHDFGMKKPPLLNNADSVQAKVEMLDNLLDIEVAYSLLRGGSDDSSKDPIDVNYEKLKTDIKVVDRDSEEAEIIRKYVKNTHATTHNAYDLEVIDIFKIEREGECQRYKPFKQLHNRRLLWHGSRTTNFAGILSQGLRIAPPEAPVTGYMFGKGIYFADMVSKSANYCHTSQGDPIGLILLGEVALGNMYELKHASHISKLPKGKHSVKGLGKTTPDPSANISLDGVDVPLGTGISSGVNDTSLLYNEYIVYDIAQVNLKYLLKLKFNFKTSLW
Method: The solution of recombinant poly(ADP-ribose) polymerase 1 and 2 (PARP1 and PARP2) (40 ng enzyme/well) and the compounds to be tested were mixed, respectively. The solutions were added to a 96-well plate coated with histone mixture, incubated at room temperature for 1 h, then 50 μL 0.3 ng/mL Streptavidin-HRP was added to each well. The plates were incubated for 30 minutes at room temperature. Finally, the plates were treated with streptavidin-HRP followed by addition of the ELISA ECL substrate to produce chemiluminescence that can be measured using a chemiluminescence reader. Inhibition of the tested compound to PARP1/2 enzyme activity was calculated according to the following formula. [formula] IC50 value is obtained by fitting the s-shaped dose response curve equation by using XL Fit software.

PDE3A = target: T1, PDE3A (Homo sapiens, UniProt Q14432); assay: PDE3A fluorescence polarization (FP) assay; assay type: biochemical; conditions: 2 nM PDE3A, 0.2 μM FAM-cAMP, read-out: IC50 (μM), PDE3A enzyme activity
T1 construct: purchased Sino Biological 11908-H20B1
T1 sequence (Q14432 669-1141 limits assumed): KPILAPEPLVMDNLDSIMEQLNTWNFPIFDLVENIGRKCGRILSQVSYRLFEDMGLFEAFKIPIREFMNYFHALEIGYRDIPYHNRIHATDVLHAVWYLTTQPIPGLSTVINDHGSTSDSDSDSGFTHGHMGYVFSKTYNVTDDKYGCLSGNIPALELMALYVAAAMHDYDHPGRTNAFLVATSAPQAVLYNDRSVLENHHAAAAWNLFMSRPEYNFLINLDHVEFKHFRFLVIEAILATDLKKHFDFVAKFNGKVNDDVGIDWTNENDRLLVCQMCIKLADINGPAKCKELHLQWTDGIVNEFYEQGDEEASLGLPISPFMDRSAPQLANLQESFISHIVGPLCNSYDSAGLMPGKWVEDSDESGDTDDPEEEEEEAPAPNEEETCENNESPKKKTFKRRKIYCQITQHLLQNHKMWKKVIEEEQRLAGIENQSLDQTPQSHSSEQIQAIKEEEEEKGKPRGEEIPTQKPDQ
Method: A PDE3A fluorescence polarization (FP) assay in a multi-step format was performed using black, round bottom 384-well plates (Corning, 4514). The testing compounds were serially diluted from stock solutions to 11 concentrations with a 3-fold dilution factor using DMSO. Fifty nL of compound dilutions was mixed with 5 μL of reaction buffer (10 mM Tris-HCl, pH 7.2, 10 mM MgCl2, 0.05% NaN3, 0.1% phosphate-free BSA) containing 0.2 μM FAM-cAMP (BPS, 60200) and 2 nM PDE3A (Sino Biological, 11908-H20B1) enzyme, and incubated for 60 min at 25° C. Afterwards, 15 μL binding agent mixture (Molecular Devices, R8124) was added to each well and the plate was incubated for 60 min at 25° C. The plate was loaded to a BMG PHERAstar FSX to read Fluorescence Polarization (FP) values at a setting of: Ex: 485 nm and Em: 520 nm. Emission light intensity with polarizers parallel (Em|) and emission light intensity with polarizers perpendicular (Em⊥) were recorded. The Polarization (mP) values were calculated using the following formula: mP=(SignalEm|−SignalEm⊥)/(SignalEm|+SignalEm⊥).
Data analysis: • 1) The inhibition % of a compound dose is calculated as:
[formula] • wherein mPMin and mPMax refer to the polarization readings in the condition of substrate only and substrate+enzyme, respectively. • 2) The IC50 values were calculated from non-linear curve fitting using following regression equation using a commercial curve fitting software GraphPad Prism 9.2.0.
wherein X refers to Log of compound concentration and Y refers to % Inhibition.
Table 3 summarize the inhibitory effects of compounds on PDE3A enzyme activity (IC50).

Row | IC50 (MDA-MB-436 cells) [nM] | IC50 [1] [nM] | IC50 [2] [nM] | IC50 (PDE3A) [µM] | SMILES
1 | 4.75 | 21 | 0.26 | – | CNC(=O)c1ccc(-n2cc3c(n2)CN(Cc2ccc4c([nH]c(=O)c5c(C(F)(F)F)cnn54)c2F)C3)cn1 [Example 25, 5-(5-((6-fluoro-4-oxo-3-(trifluoromethyl)-4,5-dihydropyrazolo[1,5-a]quinoxalin-7-yl)methyl)-5,6-dihydropyrrolo[3,4-c]pyrazol-2(4H)-yl)-N-methylpicolinamide]
2 | 0.76 | 119 | – | 29.4 | CNC(=O)c1ccc(-n2cc3c(n2)CN(Cc2ccc4c([nH]c(=O)c5occc54)c2F)C3)cn1 [Example 28, 5-(5-((6-fluoro-4-oxo-4,5-dihydrofuro[2,3-c]quinolin-7-yl)methyl)-5,6-dihydropyrrolo[3,4-c]pyrazol-2(4H)-yl)-N-methylpicolinamide]
3 | 1.57 | > 10000 | – | > 30 | CNC(=O)c1ccc(-n2cc3c(n2)CN(Cc2ccc4c([nH]c(=O)c5nn(C)cc54)c2F)C3)cn1 [Example 29, 5-(5-((6-fluoro-2-methyl-4-oxo-4,5-dihydro-2H-pyrazolo[3,4-c]quinolin-7-yl)methyl)-5,6-dihydropyrrolo[3,4-c]pyrazol-2(4H)-yl)-N-methylpicolinamide]
4 | 6.04 | 118 | – | > 30 | CNC(=O)c1ccc(-c2nc3c(s2)CN(Cc2ccc4c([nH]c(=O)c5c(F)cnn54)c2F)C3)cn1 [Example 42, 5-(5-((3,6-difluoro-4-oxo-4,5-dihydropyrazolo[1,5-a]quinoxalin-7-yl)methyl)-5,6-dihydro-4H-pyrrolo[3,4-d]thiazol-2-yl)-N-methylpicolinamide]
5 | 0.38 | 48 | – | > 30 | CNC(=O)c1ccc(-n2cc3c(c2)CN(Cc2ccc4c([nH]c(=O)c5c(F)cnn54)c2F)C3)cn1 [Example 48, 5-(5-((3,6-difluoro-4-oxo-4,5-dihydropyrazolo[1,5-a]quinoxalin-7-yl)methyl)-5,6-dihydropyrrolo[3,4-c]pyrrol-2(4H)-yl)-N-methylpicolinamide]
6 | 1.51 | > 10000 | – | > 30 | CNC(=O)c1ccc(-n2cc3c(n2)CN(Cc2ccc4c([nH]c(=O)n5cc(C)nc45)c2F)C3)c(F)n1 [Example 51, 6-fluoro-5-(5-((7-fluoro-2-methyl-5-oxo-5,6-dihydroimidazo[1,2-c]quinazolin-8-yl)methyl)-5,6-dihydropyrrolo[3,4-c]pyrazol-2(4H)-yl)-N-methylpicolinamide]
7 | 1.47 | 255 | – | > 30 | CNC(=O)c1ccc(-n2cc3c(n2)CN(Cc2ccc4c([nH]c(=O)c5occc54)c2F)C3)c(F)n1 [Example 54, 6-fluoro-5-(5-((6-fluoro-4-oxo-4,5-dihydrofuro[2,3-c]quinolin-7-yl)methyl)-5,6-dihydropyrrolo[3,4-c]pyrazol-2(4H)-yl)-N-methylpicolinamide]
8 | 0.81 | 403 | – | > 30 | CCNC(=O)c1ccc(-n2cc3c(n2)CN(Cc2ccc4c([nH]c(=O)c5occc54)c2F)C3)c(F)n1 [Example 55, N-ethyl-6-fluoro-5-(5-((6-fluoro-4-oxo-4,5-dihydrofuro[2,3-c]quinolin-7-yl)methyl)-5,6-dihydropyrrolo[3,4-c]pyrazol-2(4H)-yl)picolinamide]
9 | 1.56 | > 10000 | – | > 30 | CCNC(=O)c1ccc(-n2cc3c(n2)CN(Cc2ccc4c([nH]c(=O)c5cc(F)nn54)c2F)C3)c(F)n1 [Example 57, 5-(5-((2,6-difluoro-4-oxo-4,5-dihydropyrazolo[1,5-a]quinoxalin-7-yl)methyl)-5,6-dihydropyrrolo[3,4-c]pyrazol-2(4H)-yl)-N-ethyl-6-fluoropicolinamide]
